The NIST ThermoML archive (doi:10.1021/je100832h)
± gives the expanded uncertainty stated by the source.

Assays:
[1] = excess molar enthalpy (molar enthalpy of mixing); xn = mol fraction of the nth substance listed; details: 291.15 K, 101 kPa, Liquid, Calvet calorimetry
[2] = xn = mol fraction of the nth substance listed; details: 101.32 kPa, Liquid, Vibrating tube method

Structure (SMILES): CCCCCCCCC [nonane] + CCOC(C)=O
- excess molar enthalpy ([1]; x2 = 0.0872): 0.551 ± 0.012 kJ/mol
- excess molar enthalpy ([1]; x2 = 0.1735): 0.942 ± 0.02 kJ/mol
- excess molar enthalpy ([1]; x2 = 0.2499): 1.25 ± 0.027 kJ/mol
- excess molar enthalpy ([1]; x2 = 0.3159): 1.47 ± 0.031 kJ/mol
- excess molar enthalpy ([1]; x2 = 0.3746): 1.6 ± 0.034 kJ/mol
- excess molar enthalpy ([1]; x2 = 0.433): 1.69 ± 0.036 kJ/mol
- excess molar enthalpy ([1]; x2 = 0.4869): 1.73 ± 0.037 kJ/mol
- excess molar enthalpy ([1]; x2 = 0.534): 1.74 ± 0.037 kJ/mol
- excess molar enthalpy ([1]; x2 = 0.5836): 1.72 ± 0.037 kJ/mol
- excess molar enthalpy ([1]; x2 = 0.6005): 1.7 ± 0.036 kJ/mol
- excess molar enthalpy ([1]; x2 = 0.6419): 1.65 ± 0.035 kJ/mol
- excess molar enthalpy ([1]; x2 = 0.6885): 1.56 ± 0.033 kJ/mol
- excess molar enthalpy ([1]; x2 = 0.7366): 1.45 ± 0.031 kJ/mol
- excess molar enthalpy ([1]; x2 = 0.7846): 1.3 ± 0.028 kJ/mol
- excess molar enthalpy ([1]; x2 = 0.8345): 1.1 ± 0.024 kJ/mol
- excess molar enthalpy ([1]; x2 = 0.8779): 0.856 ± 0.019 kJ/mol
- excess molar enthalpy ([1]; x2 = 0.9237): 0.588 ± 0.013 kJ/mol
- excess molar enthalpy ([1]; x2 = 0.9619): 0.307 ± 0.007 kJ/mol
- mass density ([2]; 291.15 K, x2 = 0): 719.2 ± 0.56 kg/m3
- mass density ([2]; 291.15 K, x2 = 0.0328): 721.88 ± 0.66 kg/m3
- mass density ([2]; 291.15 K, x2 = 0.0796): 726 ± 0.67 kg/m3
- mass density ([2]; 291.15 K, x2 = 0.1292): 730.54 ± 0.69 kg/m3
- mass density ([2]; 291.15 K, x2 = 0.2225): 740.13 ± 0.72 kg/m3
- mass density ([2]; 291.15 K, x2 = 0.3076): 750 ± 0.77 kg/m3
- mass density ([2]; 291.15 K, x2 = 0.3932): 761.25 ± 0.81 kg/m3
- mass density ([2]; 291.15 K, x2 = 0.4659): 771.77 ± 0.87 kg/m3
- mass density ([2]; 291.15 K, x2 = 0.5694): 788.99 ± 0.92 kg/m3
- mass density ([2]; 291.15 K, x2 = 0.6015): 794.91 ± 0.99 kg/m3
- mass density ([2]; 291.15 K, x2 = 0.6514): 804.7 ± 1 kg/m3
- mass density ([2]; 291.15 K, x2 = 0.7041): 815.84 ± 1.1 kg/m3
- mass density ([2]; 291.15 K, x2 = 0.7547): 827.59 ± 1.2 kg/m3
- mass density ([2]; 291.15 K, x2 = 0.8076): 840.96 ± 1.2 kg/m3
- mass density ([2]; 291.15 K, x2 = 0.8502): 852.64 ± 1.3 kg/m3
- mass density ([2]; 291.15 K, x2 = 0.8954): 866.2 ± 1.4 kg/m3
- mass density ([2]; 291.15 K, x2 = 0.9307): 877.58 ± 1.6 kg/m3
- mass density ([2]; 291.15 K, x2 = 0.9918): 899.59 ± 1.8 kg/m3
- mass density ([2]; 298.15 K, x2 = 0): 713.85 ± 0.55 kg/m3
- mass density ([2]; 298.15 K, x2 = 0.0652): 719.2 ± 0.65 kg/m3
- mass density ([2]; 298.15 K, x2 = 0.1102): 723.17 ± 0.68 kg/m3
- mass density ([2]; 298.15 K, x2 = 0.1906): 730.94 ± 0.7 kg/m3
- mass density ([2]; 298.15 K, x2 = 0.2667): 739.14 ± 0.73 kg/m3
- mass density ([2]; 298.15 K, x2 = 0.3377): 747.65 ± 0.77 kg/m3
- mass density ([2]; 298.15 K, x2 = 0.4128): 757.7 ± 0.81 kg/m3
- mass density ([2]; 298.15 K, x2 = 0.4737): 766.6 ± 0.85 kg/m3
- mass density ([2]; 298.15 K, x2 = 0.5212): 774.12 ± 0.9 kg/m3
- mass density ([2]; 298.15 K, x2 = 0.5875): 785.5 ± 0.93 kg/m3
- mass density ([2]; 298.15 K, x2 = 0.6305): 793.54 ± 0.99 kg/m3
- mass density ([2]; 298.15 K, x2 = 0.6743): 802.32 ± 1.1 kg/m3
- mass density ([2]; 298.15 K, x2 = 0.7212): 812.53 ± 1.1 kg/m3
- mass density ([2]; 298.15 K, x2 = 0.767): 823.2 ± 1.2 kg/m3
- mass density ([2]; 298.15 K, x2 = 0.8024): 832.16 ± 1.2 kg/m3
- mass density ([2]; 298.15 K, x2 = 0.8428): 843.01 ± 1.3 kg/m3
- mass density ([2]; 298.15 K, x2 = 0.8654): 849.38 ± 1.4 kg/m3
- mass density ([2]; 298.15 K, x2 = 0.9419): 873.16 ± 1.5 kg/m3
- mass density ([2]; 298.15 K, x2 = 0.9564): 878.07 ± 1.6 kg/m3
- mass density ([2]; 318.15 K, x2 = 0): 698.09 ± 0.54 kg/m3
- mass density ([2]; 318.15 K, x2 = 0.0372): 700.83 ± 0.63 kg/m3
- mass density ([2]; 318.15 K, x2 = 0.1287): 708.3 ± 0.65 kg/m3
- mass density ([2]; 318.15 K, x2 = 0.2206): 717 ± 0.69 kg/m3
- mass density ([2]; 318.15 K, x2 = 0.3125): 726.84 ± 0.72 kg/m3
- mass density ([2]; 318.15 K, x2 = 0.3941): 736.68 ± 0.77 kg/m3
- mass density ([2]; 318.15 K, x2 = 0.4659): 746.38 ± 0.81 kg/m3
- mass density ([2]; 318.15 K, x2 = 0.5311): 756.19 ± 0.87 kg/m3
- mass density ([2]; 318.15 K, x2 = 0.5965): 767.1 ± 0.93 kg/m3
- mass density ([2]; 318.15 K, x2 = 0.6714): 781.02 ± 0.98 kg/m3
- mass density ([2]; 318.15 K, x2 = 0.7111): 789.15 ± 1.1 kg/m3
- mass density ([2]; 318.15 K, x2 = 0.7598): 799.77 ± 1.1 kg/m3
- mass density ([2]; 318.15 K, x2 = 0.8122): 812.28 ± 1.2 kg/m3
- mass density ([2]; 318.15 K, x2 = 0.8596): 824.75 ± 1.3 kg/m3
- mass density ([2]; 318.15 K, x2 = 0.8955): 835.04 ± 1.4 kg/m3
- mass density ([2]; 318.15 K, x2 = 0.936): 847.56 ± 1.4 kg/m3
- mass density ([2]; 318.15 K, x2 = 0.9808): 862.66 ± 1.5 kg/m3
- mass density ([2]; 328.15 K, x2 = 0): 690.4 ± 0.54 kg/m3
- mass density ([2]; 328.15 K, x2 = 0.0202): 691.7 ± 0.6 kg/m3
- mass density ([2]; 328.15 K, x2 = 0.1246): 699.9 ± 0.64 kg/m3
- mass density ([2]; 328.15 K, x2 = 0.2225): 708.81 ± 0.67 kg/m3
- mass density ([2]; 328.15 K, x2 = 0.3109): 717.88 ± 0.71 kg/m3
- mass density ([2]; 328.15 K, x2 = 0.3923): 727.35 ± 0.75 kg/m3
- mass density ([2]; 328.15 K, x2 = 0.4644): 736.84 ± 0.8 kg/m3
- mass density ([2]; 328.15 K, x2 = 0.5377): 747.63 ± 0.85 kg/m3
- mass density ([2]; 328.15 K, x2 = 0.6125): 759.98 ± 0.94 kg/m3
- mass density ([2]; 328.15 K, x2 = 0.7233): 781.1 ± 0.99 kg/m3
- mass density ([2]; 328.15 K, x2 = 0.7593): 788.8 ± 1.1 kg/m3
- mass density ([2]; 328.15 K, x2 = 0.8102): 800.56 ± 1.1 kg/m3
- mass density ([2]; 328.15 K, x2 = 0.8505): 810.9 ± 1.2 kg/m3
- mass density ([2]; 328.15 K, x2 = 0.8934): 822.54 ± 1.3 kg/m3
- mass density ([2]; 328.15 K, x2 = 0.9507): 840.17 ± 1.4 kg/m3
- mass density ([2]; 328.15 K, x2 = 0.9876): 852.64 ± 1.5 kg/m3
